The results in this text go back to patent publication US5004612A, “Pharmaceutical compositions comprising esters or amides as active ingredients” (priority 1987, dated 1991).

Where two headings read alike, the source gives them in different places.

Data set [1] can be described thus: in vivo. Details: species or system male Sprague-Dawley rats. The settings on record: rat, BA. As for the experimental part: (§1) The experiment was carried out according to the Yasuhara's method using intestinal loop in rats [see Journal of Pharmacobio-Dynamics, 2, 251 (1979)]. That is, male Sprague-Dawley rats weighing 220-260 g were fasted an overnight prior to surgery; however drinking water was readily accessible. The rats were anesthetized by sodium pentobarbital using an intraperitoneal injection of 50 mg/kg. The small intestine was exposed by a midline abdominal incision. The intestinal loop studied was used approximately 15 cm of the duodenal-jejunal site that was approximately 2 cm off the outlet of bile duct.
The suspension or solution containing active ingredients was directly administered into the loop and the both ends of the loop were closed. […] The active ingredient and the degradation products in sample were determined with high pressure liquid chromatography. […]
When Experiment 1 was carried out by using Compound A and D, blood was collected after a given period of time (0, 15, 30, 60 and 120 minutes after). The concentration of the active ingredient in blood was determined with high pressure liquid chromatography, and Area Under the plasma concentration-time Curve (AUC) was calculated and then bioavailability (BA) was calculated according to the following formula by comparing with AUC in intravenous administration. […]

Data set [2] can be described thus: in vivo. Conditions: dog, plasma, po, read-out: BA. Details: species or system male Beagle dogs. As for the experimental part:
When Experiment 1 was carried out by using Compound A and D, blood was collected after a given period of time (0, 15, 30, 60 and 120 minutes after). The concentration of the active ingredient in blood was determined with high pressure liquid chromatography, and Area Under the plasma concentration-time Curve (AUC) was calculated and then bioavailability (BA) was calculated according to the following formula by comparing with AUC in intravenous administration. [formula] [AUCid]: AUC in intraduodenal administration [AUCiv]: AUC in intravenous administration
Each one soft capsule prepared in Reference Example 1, 2, 3, 4, 5 and 6 (used only a suspension of Example 2 (compound B) in Reference Example 4,5 and 6) was administered orally with 50 ml of water to six male Beagle dogs fasted an overnight (aged one to two and weighing 10±1 kg). By the same procedures as described in Experiment 2, the concentration of the active ingredient in blood, AUC, and then BA were calculated.
^1 Comparison: Compound A or Compound B (10 mg/5 ml) of water/kg
animal body weight) was orally administered.

Data set [3] can be described thus: in vivo. On the set-up: species or system male Sprague-Dawley rats. Conditions: rat, 5 mg/0.5 ml/animal, read-out: Remaining ratio of the active ingredient in small intestine; for remaining at 5 min: 5 minutes after; for remaining at 0.25 h: 15 minutes after. As for the experimental part: The inhibitory effect of MCG on the degradation of esters of guanidinobenzoic acid in small intestine
as §1
The suspension or solution containing active ingredients was directly administered into the loop and the both ends of the loop were closed. The experiment with Compound G and I was carried out further by adding pancreatic juice and bile of other rats into the loop by cannula. After a given period of time, the loop was cut out. The contents were washed out with physiological salt solution and/or ethanol, and thereto was added a mixture of 0.1N aqueous methanesulfonic acid, 1,2-dichloroethane and isopropanol. The obtained mixture was centrifuged and the resulting supernatant was used as a sample. In the case of Compound D to H, the washings were directly used as a sample. The active ingredient and the degradation products in sample were determined with high pressure liquid chromatography.
Compound A: p-(p-guanidinobenzoyloxy)phenylacetic acid N,N-dimethylcarbamoylmethyl ester methanesulfonate [drawing 2] Compound B: p-guanidinobenzoic acid 6-amidinonaphth-2-yl ester dimethanesulfonate [drawing 3] Compound C: p-guanidinobenzoic acid methyl ester methanesulfonate [drawing 4] Compound D: 7-(3-tosylaminobicyclo[2.2.1]heptan-2-yl)-5Z-heptenoic acid ethyl ester [drawing 5] Compound E: salicylic acid ethyl ester [drawing 6] Compound F: aspirin [drawing 7] Compound G: 6-keto-16S,18S-ethano-20-ethyl-PGE1 leucine amide [drawing 8] Compound H: N-[3-[N-(4-chlorobenzyl)carbamoyl]propanoyl]-L-prolinal [drawing 9] Compound I: 7-(3-tosylaminobicyclo[2.2.1]heptan-2-yl)-5Z-heptenoic acid glycine amide [drawing 10] (wherein G is a guanidino group.)
H2 O: dissolving in the ratio of 5 mg of active ingredient/0.5 ml of water/animal.
MCM8(glyceryl monocaprylate): suspending in the ratio of 5 mg of active ingredient/0.5 ml of MCM8/animal.
MCT8(glyceryl tricaprylate): suspending in the ratio of 5 mg of active ingredient/0.5 ml of MCT8/animal.
2. 0.5 ml of physiological salt solution (referred to "SALT") for Compound D instead of water, because of its water-insoluble character.
3. 0.1 mg of Compound G were used because of its strong pharmacological effect, and isotonic phosphate buffer solution (referred to "PHOS") (pH 6.5) instead of water was used because of its water-insoluble character.

Data set [4] in a line: Water solubility (remark on administration). The class given is physicochemical.

In the case of `CN(C)C(=O)COC(=O)Cc1ccc(OC(=O)c2ccc(NC(=N)N)cc2)cc1.CS(=O)(=O)O` [Compound A, p-(p-guanidinobenzoyloxy)phenylacetic acid N,N-dimethylcarbamoylmethyl ester methanesulfonate], the bioavailability was 3% in “in vivo [1]”; 6.3 ± 2.4% in the data set “in vivo [2]” (10 mg/kg, Comparison A (10 mg/5 ml of water/kg body weight)); 10.9 ± 4.3% in the data set “in vivo [2]” (Reference Example 1 (soft capsule of Example 1 suspension)); 18.4 ± 7.3% in the data set “in vivo [2]” (Reference Example 2 (enteric-coated soft capsule, carboxymethylethyl cellulose)); 17.2 ± 11.5% in the data set “in vivo [2]” (Reference Example 3 (enteric-coated soft capsule, hydroxypropylmethyl cellulose acetate succinate)).

In the case of `CS(=O)(=O)O.CS(=O)(=O)O.N=C(N)Nc1ccc(C(=O)Oc2ccc3cc(C(=N)N)ccc3c2)cc1` [Compound B, p-guanidinobenzoic acid 6-amidinonaphth-2-yl ester dimethanesulfonate], the remaining at 5 min in “in vivo [3]” (H2O (COMPARISON)) was 68.8 ± 1.7%; in the data set “in vivo [3]” (MCM8 (INVENTION)) it was 90 ± 15.6%; in “in vivo [3]” (MCT8 (INVENTION)) it was 80 ± 3.2%. Further, the figures for the remaining at 0.25 h in “in vivo [3]” (H2O (COMPARISON)), in the data set “in vivo [3]” (MCM8 (INVENTION)) and in the data set “in vivo [3]” (MCT8 (INVENTION)) were 27.5 ± 5.2%, 70.5 ± 12.1% and 60.8 ± 7.5%, respectively. For the same molecule, the bioavailability in the data set “in vivo [2]” (10 mg/kg, Comparison B (10 mg/5 ml of water/kg body weight)) stood at 1.7 ± 1.2%; in the data set “in vivo [2]” (Reference Example 4 (soft capsule of Example 2 suspension)), 3.2 ± 1.7%; in “in vivo [2]” (Reference Example 5 (enteric-coated soft capsule, as Reference Example 2)), 5 ± 2.5%; in “in vivo [2]” (Reference Example 6 (enteric-coated soft capsule, as Reference Example 3)), 5.1 ± 2.1%.

As to `CCOC(=O)CCC/C=C\CC1C2CCC(C2)C1NS(=O)(=O)c1ccc(C)cc1` (stereo not drawn) [Compound D, 7-(3-tosylaminobicyclo[2.2.1]heptan-2-yl)-5Z-heptenoic acid ethyl ester], the solubility in water result in data set [4] is recorded as “water-insoluble”.

For the molecule `COC(=O)c1ccc(NC(=N)N)cc1.CS(=O)(=O)O` [Compound C, p-guanidinobenzoic acid methyl ester methanesulfonate], the solubility in water result in data set [4] is “poor solubility”.

As to `CCCC[C@H]1CC[C@H]([C@H](O)/C=C/[C@H]2[C@H](O)CC(=O)[C@@H]2CC(=O)CCCCC(=O)NC(CC(C)C)C(=O)O)C1` (stereo partly drawn) [Compound G, 6-keto-16S,18S-ethano-20-ethyl-PGE1 leucine amide], the solubility in water result in data set [4] is “water-insoluble”.
